Reference: patent publication US20030114512A1, “Compounds with 5-ht2 and 5-ht1a agonist activity for treating glaucoma” (priority 2002, published 2003)

Legend:
5-HT1A receptor = biological target: T1, 5-HT1A receptor (UniProt P08908); assay: 5-HT1A functional assays (inhibition of forskolin-stimulated adenylate cyclase / cAMP); assay type: biochemical; conditions: for EC50: read-out: EC50, nM (SEM) 5-HT1A functional
T1 sequence (P08908 1-422): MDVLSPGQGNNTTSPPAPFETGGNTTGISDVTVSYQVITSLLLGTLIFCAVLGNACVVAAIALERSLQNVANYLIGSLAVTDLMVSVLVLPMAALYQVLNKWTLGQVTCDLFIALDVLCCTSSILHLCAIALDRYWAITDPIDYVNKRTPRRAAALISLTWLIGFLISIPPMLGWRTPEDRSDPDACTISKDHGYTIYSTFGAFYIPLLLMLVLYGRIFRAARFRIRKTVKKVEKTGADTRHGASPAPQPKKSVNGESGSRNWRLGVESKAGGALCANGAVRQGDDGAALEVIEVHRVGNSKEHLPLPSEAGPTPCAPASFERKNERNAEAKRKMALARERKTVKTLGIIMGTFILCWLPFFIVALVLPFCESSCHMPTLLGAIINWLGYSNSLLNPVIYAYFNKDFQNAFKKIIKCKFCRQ
Description: The function of Compounds of the present invention can be determined using a variety of methods to assess the functional activity of 5-HT1A agonists. One such assay is performed using hippocampal slices from male Sprague-Dawley rats, measuring the inhibition of forskolin-stimated adenylate cyclase [J. Med. Chem. 42. 36 (1999), J. Neurochem. 56, 1114 (1991), J. Pharm. Exper. Ther. 284:1082 (1998). Rat hippocampal membranes were homogenized in 25 volumes of 0.3 M sucrose containing 1 mM EGTA, 5 mM EDTA, 5 mM dithiothreitol, and 20 mM Tris-HCl, pH 7.4 at 25° C. The homogenate was centrifuged for 10 m in at 1,000×g. The supernatant subsequently was centrifuged at 39,000×g for 10 min. The resulting pellet was re-suspended in homogenization buffer at a protein concentration of approximately 1 mg/ml and aliquots were stored at −140° C. Prior to use, the membranes were rehomogenized in a Potter-Elvehjem homogenizer. Fifty μl of the membrane suspension (50 μg protein) were added to an incubation buffer containing 100 mM NaCl, 2 mM magnesium acetate, 0.2 mM ATP, 1 mM cAMP, 0.01 mM GTP, 0.01 mM forskolin, 80 mM Tris-HCl, 5 mM creatine phosphate, 0.8 U/μl creatine phosphokinase, 0.1 mM IBMX, 1-2 μCi α-[^32P]ATP. Incubations with test compounds (10 min at 30° C.) were initiated by the addition of the membrane solution to the incubation mixture (prewarmed 5 min at 30° C.). [^32P]cAMP was measured according to the method of Salomon (Adv. Cyclic Nucleotide Res. 10:35-55, 1979). Protein was measure using the Bradford (Anal. Biochem 72:248-254, 1976) assay.
Functional activity can also be determined in recombinant human receptors according to the method of Schoeffter et al., (Neuropharm. 36:429-437, 1997). HeLa cells transfected with recombinant human 5-HT1A receptors were grown to confluence in 24-well plates. The cells were rinsed with 1 ml of Hepes-buffered saline (in mM) NaCl 130, KCl 5.4, CaCl2, 1.8, MgSO4 0.8, NaH2PO4 0.9, glucose 25, Hepes 20, pH 7.4, and phenol red 5 mg/l. The cells were labelled with 6 μCi/ml of [^3H] adenine (23 Ci/mmol, Amersham, Rahn AG, Zurich, Switzerland) in 0.5 ml of saline at 37° C. for 2 hr. The plates were subsequently rinsed twice with 1 ml of buffered saline containing 1 mM isobutylmethylxanthine. The cells were incubated for 15 min in 1 ml of this solution (37° C.) in the presence or absence of 10 μM forskolin and the test compound. The buffer was then removed and 1 ml of 5% trichloroacetic acid (TCA) containing 0.1 mM cAMP and 0.1 mM ATP was added to extract the samples. After 30 min at 4° C., the TCA extracts were subjected to chromatographic separation on Dowex AG 50W-X4 and alumina columns (Salomon, Methods in Enzymology 195: 22-28, 1991). Cyclic AMP production was calculated as the ratio [^3H]cAMP/([^3H]cAMP+[^3H]ATP).

intraocular pressure = assay: IOP response in lasered (hypertensive) eyes of conscious cynomolgus monkeys; assay type: in vivo, cynomolgus monkey
Description: IOP Response in Lasered (Hypertensive) Eyes of Conscious Cynomolgus Monkeys
Intraocular pressure (IOP) was determined with an Alcon Pneumatonometer after light corneal anesthesia with 0.1% proparacaine. Eyes were washed with saline after each measurement. After a baseline IOP measurement, test compound was instilled in one 30 μL aliquot to the right eyes only of nine cynomolgus monkeys. Vehicle was instilled in the right eyes of six additional animals. Subsequent IOP measurements were taken at 1, 3, and 6 hours.

[1] = test system: photooxidative induced retinopathy; assay: Neuroprotective effects in the rat photooxidative induced retinopathy model (ERG); assay type: in vivo, Sprague Dawley rat; conditions: for A-wave Amplitude Mean / B-wave Amplitude Mean: ERG after five day recovery
Description: Neuroprotective Effects in the Rat Photooxidative Induced Retinopathy Model
Male Sprague Dawley rats were randomly assigned to vehicle treatment (saline) or drug treatment (dissolved in saline) experimental groups. α-methyl-5-hydroxytryptamine (1, 5, and 10 mg/kg) or vehicle was administered by subcutaneous (SC) injection at 48, 24, and 0 hours prior to light exposure and once 24 hours after a 6-hour light exposure to spectrally filtered blue light (˜220 fc). Control rats were housed in their home cage under normal cyclic light exposure. Rats were single housed in clear polycarbonate cages during this light exposure.
The electroretinogram (ERG) was recorded after a five day recovery period from dark-adapted anesthetized rats (Ketamine-HCl, 75 mg/Kg; Xylazine, 6 mg/Kg). The eye's electrical response to a flash of light was elicited by viewing a ganzfeld. ERGs to a series of light flashes increasing in intensity were digitized to analyze temporal characteristics of the waveform and determine the response voltage-log intensity (VlogI) relationship. Changes in the ERG a-wave are associated with photoreceptor and retinal pigment epithelium damage while damage to the inner retina is reflected in changes in the ERG b-wave.

[2] = 300 μg topical ocular, 1 hour after dose
[3] = 300 μg topical ocular, 3 hours after dose
[4] = 300 μg topical ocular, 6 hours after dose

Row | Compound | Efficacy (Emax, %) 5-HT1A functional (5-HT1A receptor) | EC50 (5-HT1A receptor) | Percent IOP Reduction (intraocular pressure; [2]) | Percent IOP Reduction (intraocular pressure; [3]) | Percent IOP Reduction (intraocular pressure; [4]) | Maximum a- and b-wave response amplitudes compared with vehicle dosed rats ([1]; 1.0 mg/kg) | Maximum a- and b-wave response amplitudes, % of control animals ([1]; 1.0 mg/kg) | A-wave Amplitude Mean ([1]; 1.0 mg/kg SC) | B-wave Amplitude Mean ([1]; 1.0 mg/kg SC) | A-wave Amplitude Mean ([1]; 5.0 mg/kg SC) | B-wave Amplitude Mean ([1]; 5.0 mg/kg SC) | A-wave Amplitude Mean ([1]; 10.0 mg/kg SC) | B-wave Amplitude Mean ([1]; 10.0 mg/kg SC) | Protection of retina function against photo-oxidative induced retinopathy ([1]; 1, 5 and 10 mg/kg SC) | Maximum a- and b-wave response amplitudes compared with vehicle dosed rats ([1]; 5 and 10 mg/kg) | Maximum a-wave response amplitude, % of control animals ([1]; 5 and 10 mg/kg, first of 'respectively' values) | Maximum b-wave response amplitude, % of control animals ([1]; 5 and 10 mg/kg, second of 'respectively' values) | Percent IOP Reduction (intraocular pressure; 250 μg topical ocular, 1 hour after dose) | Percent IOP Reduction (intraocular pressure; 250 μg topical ocular, 3 hours after dose) | Percent IOP Reduction (intraocular pressure; 250 μg topical ocular, 6 hours after dose)
1 | CC(N)Cn1ccc2ccc(O)cc21.O=C(O)/C=C/C(=O)O (stereo not drawn) [1-(2-aminopropyl) 6-hydroxyindole fumarate] | 89% | 780 nM | 19.1% | 30.1% | 27% | – | – | – | – | – | – | – | – | – | – | – | – | – | – | –
2 | CC(N)Cc1c[nH]c2ccc(O)cc12.O=C(O)/C=C\C(=O)O (stereo not drawn) [α-Methyl 5-hydroxytryptamine maleate, 3-(2-aminopropyl)-1H-indol-5-ol] | 100% | 378 nM | – | – | – | not significantly different than vehicle dosed rats | approximately 30% | 237.8 μV | 555 μV | 471.93 μV | 1123 μV | 477.7 μV | 1126 μV | dose-dependent protection of outer and inner retina function | significantly higher than responses measured in vehicle dosed rats | approximately 58% | ~62% | 14.2% | 25.8% | 30.8%
3 | COc1ccc2[nH]cc(CC(C)N)c2c1.O=C(O)/C=C/C(=O)O (stereo not drawn) [α-Methyl 5-methoxytryptamine fumarate] | 92% | 570 nM | 14% | 23.5% | 22.6% | – | – | – | – | – | – | – | – | – | – | – | – | – | – | –
